Source: patent publication US20240199608A1 (Eli Lilly and Company, priority 2022, published 2024)

Each compound was assayed against T1, Human AhR (Homo sapiens, UniProt P35869) (assay: hAHR Nuclear Translocation Assay). Conditions: AhR-EGFP nuclear translocation in Jump-In T-REx HEK293 cells, 45 minutes incubation; class symbols; read-out: Rel EC50.
T1 construct: expressed in transfected cells
T1 sequence (P35869 11-848): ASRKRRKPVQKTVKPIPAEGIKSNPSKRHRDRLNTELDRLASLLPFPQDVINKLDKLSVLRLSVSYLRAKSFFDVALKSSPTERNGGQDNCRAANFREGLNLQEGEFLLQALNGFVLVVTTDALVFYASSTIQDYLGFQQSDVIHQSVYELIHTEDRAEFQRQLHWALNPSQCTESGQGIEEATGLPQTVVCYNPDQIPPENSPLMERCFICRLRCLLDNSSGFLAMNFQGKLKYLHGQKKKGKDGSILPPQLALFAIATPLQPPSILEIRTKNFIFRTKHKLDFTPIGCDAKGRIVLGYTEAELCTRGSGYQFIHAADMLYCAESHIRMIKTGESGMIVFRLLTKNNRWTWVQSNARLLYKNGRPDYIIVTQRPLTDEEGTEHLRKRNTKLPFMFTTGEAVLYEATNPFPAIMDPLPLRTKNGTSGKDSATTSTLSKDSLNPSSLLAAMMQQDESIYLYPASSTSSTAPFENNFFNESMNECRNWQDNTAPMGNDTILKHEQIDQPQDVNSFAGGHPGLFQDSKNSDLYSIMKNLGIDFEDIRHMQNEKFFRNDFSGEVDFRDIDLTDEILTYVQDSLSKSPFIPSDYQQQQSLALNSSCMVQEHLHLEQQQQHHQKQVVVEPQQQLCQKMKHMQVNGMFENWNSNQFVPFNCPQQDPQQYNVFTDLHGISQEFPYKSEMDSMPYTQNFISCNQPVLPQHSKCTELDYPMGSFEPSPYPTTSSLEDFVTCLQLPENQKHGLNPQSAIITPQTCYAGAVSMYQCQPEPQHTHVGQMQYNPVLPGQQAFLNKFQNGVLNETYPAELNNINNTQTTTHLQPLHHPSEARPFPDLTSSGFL
Format: cell-based
Text: The purpose of this assay is to measure the ability of compounds to bind to, activate, and induce the translocation of AhR into the nucleus of a cell for transcription. Stable cell lines were established using Jump-InTM T-RExTM HEK293 Retargeting Kit (Life Technologies). Human AhR cDNA was cloned into the pJTI R4 CMV-TO EGFP vector. The EGFP was cloned to the C-terminal of AHR to form AhR-EGFP chimera. The pJTI R4 CMV-TO AhR-EGFP vector was transfected using FuGENE® HD into Jump-InTM T-RExTM HEK293 cells. Transfected cells were selected using 2.5 mg/ml G418 for 10 to 14 days, then expanded, harvested, and suspended in freeze media (FBS with 8% DMSO) at 2×10^7 cells/ml, and aliquots were stored in liquid nitrogen. One day before the assay date, cells were thawed and resuspended in DMEM with 5% FBS in the presence of 1 μg/ml Doxycycline and plated into ploy-L-Lysine coated […]-384 ULTRA Microplates (Perkin Elmer) at 12,000 to 15,000 cells per well and incubated at 37° C. and 5% CO2 overnight. On the assay date, compound was serially diluted (1:2) into 384-well nunc plates with DMSO using acoustic dispensing (ECHO®). The dose response was a 20-point curve. […] The culture media was damped and 25 μl of DMEM plus 0.1% BSA was added, then 25 μL of compound in DMEM plus 0.1% BSA was added into cell plates. Cells were incubated compounds at 37° C. and 5% CO2 for 45 minutes. The final DMSO concentration was 0.2%. The media was damped after 45 minutes incubation. The cells were fixed with 40 μl of cold MeOH (-20° C.) for 20 minutes. The MeOH was damped and 50 μL of DPBS containing 1 μg/mL Hochst was added into the cell plates. The intensity of EGFP was quantitated by using Opera PHENIX® or OPERETTA® high content image system (Perkin Elmer) with 20× Water Objective and five field per well. The ratio of EGFP fluorescent intensity in nuclear over cytosol was analyzed using a 4-parameter nonlinear logistic equation to determine the potency of AhR agonists.

Row | Structure (SMILES) | EC50 [nM]
1 | Cc1nnc2c(C(=O)Nc3ncc(F)cn3)cc3c(n12)CCC3C (single isomer, unassigned) [Example 53, N-(5-Fluoropyrimidin-2-yl)-1,6-dimethyl-7,8-dihydro-6H-cyclopenta[e][1,2,4] triazolo[4,3-a]pyridine-4-carboxamide] | > 50
2 | CC(C)c1nnc2c(C(=O)Nc3ncc(F)cn3)cc3c(n12)CCC3C (single isomer, unassigned) [Example 54, N-(5-Fluoropyrimidin-2-yl)-1-isopropyl-6-methyl-7,8-dihydro-6H-cyclopenta[e][1,2,4] triazolo[4,3-a]pyridine-4-carboxamide] | > 50
3 | CC(C)c1nnc2c(C(=O)Nc3ncc(F)cn3)cc3c(n12)CCC3C (single isomer, unassigned) [Example 55, N-(5-Fluoropyrimidin-2-yl)-1-isopropyl-6-methyl-7,8-dihydro-6H-cyclopenta[e][1,2,4] triazolo[4,3-a]pyridine-4-carboxamide] | > 50
4 | CCC1CCc2c1cc(C(=O)Nc1ncc(F)cn1)c1nncn21 (single isomer, unassigned) [Example 56, 6-Ethyl-N-(5-fluoropyrimidin-2-yl)-7,8-dihydro-6H-cyclopenta[e][1,2,4] triazolo[4,3-a]pyridine-4-carboxamide] | 1 to 10
5 | CCC1CCc2c1cc(C(=O)Nc1ncc(F)cn1)c1nncn21 (single isomer, unassigned) [Example 57, 6-Ethyl-N-(5-fluoropyrimidin-2-yl)-7,8-dihydro-6H-cyclopenta[e][1,2,4] triazolo[4,3-a]pyridine-4-carboxamide] | 1 to 10
6 | CC(C)C1CCc2c1cc(C(=O)Nc1ncc(F)cn1)c1nncn21 (single isomer, unassigned) [Example 58, N-(5-Fluoropyrimidin-2-yl)-6-isopropyl-7,8-dihydro-6H-cyclopenta[e][1,2,4] triazolo[4,3-a]pyridine-4-carboxamide] | 1 to 10
7 | CC(C)C1CCc2c1cc(C(=O)Nc1ncc(F)cn1)c1nncn21 (single isomer, unassigned) [Example 59, N-(5-Fluoropyrimidin-2-yl)-6-isopropyl-7,8-dihydro-6H-cyclopenta[e][1,2,4] triazolo[4,3-a]pyridine-4-carboxamide] | 10 to 50
8 | CCC(C)C1CCc2c1cc(C(=O)Nc1ncc(F)cn1)c1nncn21 (single isomer, unassigned) [Example 60, 6-(sec-butyl)-N-(5-Fluoropyrimidin-2-yl)-7,8-dihydro-6H-cyclopenta[e][1,2,4] triazolo[4,3-a]pyridine-4-carboxamide] | 10 to 50
9 | CC1CCc2c1cc(C(=O)Nc1cnn(C)n1)c1nncn21 (single isomer, unassigned) [Example 61, 6-Methyl-N-(2-methyl-2H-1,2,3-triazol-4-yl)-7,8-dihydro-6H-cyclopenta[e][1,2,4] triazolo[4,3-a]pyridine-4-carboxamide] | 1 to 10
10 | CC1CCc2c1cc(C(=O)Nc1cnn(C)n1)c1nncn21 (single isomer, unassigned) [Example 62, 6-Methyl-N-(2-methyl-2H-1,2,3-triazol-4-yl)-7,8-dihydro-6H-cyclopenta[e][1,2,4] triazolo[4,3-a]pyridine-4-carboxamide] | 10 to 50
11 | CC1CCc2c1cc(C(=O)Nc1ccn(C)n1)c1nncn21 (single isomer, unassigned) [Example 63, 6-Methyl-N-(1-methyl-1H-pyrazol-3-yl)-7,8-dihydro-6H-cyclopenta[e][1,2,4] triazolo[4,3-a]pyridine-4-carboxamide] | 10 to 50
12 | O=C(Nc1ncc(F)cn1)c1cc2c(n3cnnc13)CCC2C1CCC1 (single isomer, unassigned) [Example 64, 6-Cyclobutyl-N-(5-fluoropyrimidin-2-yl)-7,8-dihydro-6H-cyclopenta[e][1,2,4] triazolo[4,3-a]pyridine-4-carboxamide] | 1 to 10
13 | O=C(Nc1ncc(F)cn1)c1cc2c(n3cnnc13)CCC2C1CCC1 (single isomer, unassigned) [Example 65, 6-Cyclobutyl-N-(5-fluoropyrimidin-2-yl)-7,8-dihydro-6H-cyclopenta[e][1,2,4] triazolo[4,3-a]pyridine-4-carboxamide] | 1 to 10
14 | O=C(Nc1ncc(F)cn1)c1cc2c(n3cnnc13)CCC2C1CC1 (single isomer, unassigned) [Example 66, 6-Cyclopropyl-N-(5-fluoropyrimidin-2-yl)-7,8-dihydro-6H-cyclopenta[e][1,2,4] triazolo[4,3-a]pyridine-4-carboxamide] | 1 to 10
15 | O=C(Nc1ncc(F)cn1)c1cc2c(n3cnnc13)CCC2C1CC1 (single isomer, unassigned) [Example 67, 6-Cyclopropyl-N-(5-fluoropyrimidin-2-yl)-7,8-dihydro-6H-cyclopenta[e][1,2,4] triazolo[4,3-a]pyridine-4-carboxamide] | 1 to 10
16 | CCCC1CCc2c1cc(C(=O)Nc1ncc(F)cn1)c1nncn21 (single isomer, unassigned) [Example 68, N-(5-Fluoropyrimidin-2-yl)-6-propyl-7,8-dihydro-6H-cyclopenta[e][1,2,4] triazolo[4,3-a]pyridine-4-carboxamide] | 10 to 50

Same assay, conditions: AhR-EGFP nuclear translocation in Jump-In T-REx HEK293 cells, 45 minutes incubation; numeric values; read-out: Rel EC50

Row | Structure (SMILES) | EC50 [nM]
17 | O=C(Nc1ncc(F)cn1)c1cc2ccccc2n2cnnc12 [Example 1, N-(5-Fluoropyrimidin-2-yl)-[1,2,4]triazolo[4,3-a]quinoline-4-carboxamide] | 3.1
18 | O=C(Nc1ncc(F)cn1)c1cc2ccccc2n2ccnc12 [Example 2, N-(5-Fluoropyrimidin-2-yl)imidazo[1,2-a]quinoline-4-carboxamide] | 0.585
19 | C[C@H]1CCc2c1cc(C(=O)Nc1ncc(F)cn1)c1nncn21 [Example 5, (S)-N-(5-Fluoropyrimidin-2-yl)-6-methyl-7,8-dihydro-6H-cyclopenta[e][1,2,4]triazolo [4,3-a]pyridine-4-carboxamide] | 5.79
20 | C[C@@H]1CCc2c1cc(C(=O)Nc1ncc(F)cn1)c1nncn21 [Example 6, (R)-N-(5-Fluoropyrimidin-2-yl)-6-methyl-7,8-dihydro-6H-cyclopenta[e][1,2,4]triazolo [4,3-a]pyridine-4-carboxamide] | 5.74
